Experimental data: PubChem BioAssay (NCI)
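Step 1: Grow cells in 96-well plates. Step 2: Expose to compound for 48 hours at 5 concentrations. Step 3: Interpolate endpoints linearly; if unreached, use highest concentration. GI50 = concentration required for 50% inhibition of growth. The concentration for full growth arrest is given as TGI.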

Legend:
Assay in all cases: NCI tumour cell line growth inhibition, 48 h
SF-539 CNS = test system: SF-539 CNS
SNB-75 CNS = test system: SNB-75 CNS
T-47D breast = test system: T-47D breast
M14 melanoma = test system: M14 melanoma
NCI-H460 lung = test system: NCI-H460 lung
U251 CNS = test system: U251 CNS
MCF7 breast = test system: MCF7 breast
SK-MEL-5 melanoma = test system: SK-MEL-5 melanoma
UACC-257 melanoma = test system: UACC-257 melanoma
EKVX NSCLC = test system: EKVX NSCLC
A498 renal = test system: A498 renal
NCI-H226 lung = test system: NCI-H226 lung
A549 NSCLC = test system: A549 NSCLC
SNB-19 CNS = test system: SNB-19 CNS
NCI/ADR-RES ovarian = test system: NCI/ADR-RES ovarian
DU-145 prostate = test system: DU-145 prostate
SK-OV-3 ovarian = test system: SK-OV-3 ovarian
HT29 colon = test system: HT29 colon
SR leukemia = test system: SR leukemia
HL-60(TB) leukemia = test system: HL-60(TB) leukemia
CAKI-1 renal = test system: CAKI-1 renal
CCRF-CEM leukemia = test system: CCRF-CEM leukemia
HS 578T breast = test system: HS 578T breast
NCI-H23 lung = test system: NCI-H23 lung
MOLT-4 leukemia = test system: MOLT-4 leukemia
OVCAR-5 ovarian = test system: OVCAR-5 ovarian
OVCAR-3 ovarian = test system: OVCAR-3 ovarian
HOP-92 NSCLC = test system: HOP-92 NSCLC
HCT-116 colon = test system: HCT-116 colon
MDA-MB-231 breast = test system: MDA-MB-231 breast
LOX IMVI melanoma = test system: LOX IMVI melanoma
MDA-MB-435 = test system: MDA-MB-435
SF-295 CNS = test system: SF-295 CNS
UO-31 renal = test system: UO-31 renal
SF-268 CNS = test system: SF-268 CNS
HCC-2998 colon = test system: HCC-2998 colon
ACHN renal = test system: ACHN renal
PC-3 prostate = test system: PC-3 prostate
OVCAR-4 ovarian = test system: OVCAR-4 ovarian
HOP-62 NSCLC = test system: HOP-62 NSCLC
786-0 renal = test system: 786-0 renal
IGROV1 ovarian = test system: IGROV1 ovarian
K-562 leukemia = test system: K-562 leukemia
SK-MEL-28 melanoma = test system: SK-MEL-28 melanoma
SK-MEL-2 melanoma = test system: SK-MEL-2 melanoma
TK-10 renal = test system: TK-10 renal
KM12 colon = test system: KM12 colon
BT-549 breast = test system: BT-549 breast
HCT-15 colon = test system: HCT-15 colon
SW-620 colon = test system: SW-620 colon
OVCAR-8 ovarian = test system: OVCAR-8 ovarian
SN12C renal = test system: SN12C renal
RXF 393 renal = test system: RXF 393 renal
RPMI-8226 leukemia = test system: RPMI-8226 leukemia

**Q.** Which results are given for `CCCN(CCC)S(=O)(=O)c1ccc(C(=O)O)cc1.CCCN(CCC)S(=O)(=O)c1ccc(C(=O)O)cc1.[Cl][Pt+2][Cl].[NH2-].[NH2-]`?
**A.** GI50 (SF-539 CNS): 0.289 µM; TGI (SF-539 CNS): > 33.2 µM; GI50 (SNB-75 CNS): 0.666 µM; TGI (SNB-75 CNS): 13.3 µM; GI50 (T-47D breast): 0.349 µM; TGI (T-47D breast): > 100 µM; GI50 (M14 melanoma): 1 µM; TGI (M14 melanoma): > 100 µM; GI50 (NCI-H460 lung): 0.151 µM; TGI (NCI-H460 lung): > 68.6 µM; GI50 (U251 CNS): 0.995 µM; TGI (U251 CNS): > 84.2 µM; GI50 (MCF7 breast): 0.149 µM; TGI (MCF7 breast): > 100 µM; GI50 (SK-MEL-5 melanoma): 0.476 µM; TGI (SK-MEL-5 melanoma): 1.8 µM; GI50 (UACC-257 melanoma): 2.13 µM; TGI (UACC-257 melanoma): > 100 µM; GI50 (EKVX NSCLC): 8.4 µM; TGI (EKVX NSCLC): > 100 µM; GI50 (A498 renal): 29.6 µM; TGI (A498 renal): > 85.4 µM; GI50 (NCI-H226 lung): 4.04 µM; TGI (NCI-H226 lung): 99.6 µM; GI50 (A549 NSCLC): 2.89 µM; TGI (A549 NSCLC): > 100 µM; GI50 (SNB-19 CNS): 1.6 µM; TGI (SNB-19 CNS): 60.5 µM; GI50 (NCI/ADR-RES ovarian): > 100 µM; TGI (NCI/ADR-RES ovarian): > 100 µM; GI50 (DU-145 prostate): 0.351 µM; TGI (DU-145 prostate): > 100 µM; GI50 (SK-OV-3 ovarian): 1.58 µM; TGI (SK-OV-3 ovarian): 22 µM; GI50 (HT29 colon): 2.76 µM; TGI (HT29 colon): > 100 µM; GI50 (SR leukemia): 0.112 µM; TGI (SR leukemia): > 100 µM; GI50 (HL-60(TB) leukemia): 0.221 µM; TGI (HL-60(TB) leukemia): > 100 µM; GI50 (CAKI-1 renal): 2.27 µM; TGI (CAKI-1 renal): > 100 µM; GI50 (CCRF-CEM leukemia): 0.138 µM; GI50 (HS 578T breast): 13.9 µM; TGI (HS 578T breast): > 100 µM; GI50 (NCI-H23 lung): 0.249 µM; TGI (NCI-H23 lung): 2.81 µM; GI50 (MOLT-4 leukemia): 0.246 µM; TGI (MOLT-4 leukemia): > 100 µM; GI50 (OVCAR-5 ovarian): 1.44 µM; TGI (OVCAR-5 ovarian): > 100 µM; GI50 (OVCAR-3 ovarian): 1.07 µM; TGI (OVCAR-3 ovarian): > 27 µM; GI50 (HOP-92 NSCLC): 0.596 µM; TGI (HOP-92 NSCLC): > 21.8 µM; GI50 (HCT-116 colon): 0.945 µM; TGI (HCT-116 colon): > 52 µM; GI50 (MDA-MB-231 breast): 3.15 µM; TGI (MDA-MB-231 breast): > 58.3 µM; GI50 (LOX IMVI melanoma): 0.349 µM; TGI (LOX IMVI melanoma): > 45.2 µM; GI50 (MDA-MB-435): 0.801 µM; TGI (MDA-MB-435): 2.72 µM; GI50 (SF-295 CNS): 1.64 µM; TGI (SF-295 CNS): > 100 µM; GI50 (UO-31 renal): > 72.6 µM; TGI (UO-31 renal): > 100 µM; GI50 (SF-268 CNS): 0.7 µM; TGI (SF-268 CNS): > 100 µM; GI50 (HCC-2998 colon): 0.926 µM; TGI (HCC-2998 colon): 9.49 µM; GI50 (ACHN renal): 0.477 µM; TGI (ACHN renal): > 100 µM; GI50 (PC-3 prostate): 2.25 µM; TGI (PC-3 prostate): > 100 µM; GI50 (OVCAR-4 ovarian): 4.57 µM; TGI (OVCAR-4 ovarian): > 100 µM; GI50 (HOP-62 NSCLC): 0.653 µM; TGI (HOP-62 NSCLC): > 95 µM; GI50 (786-0 renal): 1.44 µM; TGI (786-0 renal): > 100 µM; GI50 (IGROV1 ovarian): 3.6 µM; TGI (IGROV1 ovarian): 24.2 µM; GI50 (K-562 leukemia): 0.179 µM; TGI (K-562 leukemia): > 100 µM; GI50 (SK-MEL-28 melanoma): 0.733 µM; TGI (SK-MEL-28 melanoma): > 24.1 µM; GI50 (SK-MEL-2 melanoma): 2.03 µM; TGI (SK-MEL-2 melanoma): 5.21 µM; GI50 (TK-10 renal): > 100 µM; TGI (TK-10 renal): > 100 µM; GI50 (KM12 colon): 2.61 µM; TGI (KM12 colon): > 100 µM; GI50 (BT-549 breast): 0.369 µM; TGI (BT-549 breast): 1.9 µM; GI50 (HCT-15 colon): > 100 µM; TGI (HCT-15 colon): > 100 µM; GI50 (SW-620 colon): 0.518 µM; TGI (SW-620 colon): > 100 µM; GI50 (OVCAR-8 ovarian): 1.4 µM; TGI (OVCAR-8 ovarian): > 100 µM; GI50 (SN12C renal): 0.2 µM; TGI (SN12C renal): > 100 µM; GI50 (RXF 393 renal): 0.425 µM; TGI (RXF 393 renal): 5.08 µM; GI50 (RPMI-8226 leukemia): 0.289 µM
